The values below come from PMC10794144, “A novel antibiotic class targeting the lipopolysaccharide transporter” (Nature, 2024).

In brackets after ≈: the same amount, converted by molar mass.

One may read the MIC as the lowest concentration found to suppress growth. Lower therefore signals greater potency.

For data set [1], the system named is A. baumannii. As to the kind of experiment: Agar dilution MIC, Mueller–Hinton agar with 20% human serum. In kind it is cell-based. Conditions: Acinetobacter baumannii. The method, then: Molten Mueller–Hinton agar (19 ml) supplemented with 20% human serum was added to 1 ml of compound at 20× the final concentration, poured immediately into Petri dishes (100 mm diameter) and gently mixed. Then, 2–3 colonies from agar plates were inoculated into CAMHB and incubated overnight under shaking (150 rpm). […] The agar plates were incubated aerobically at 35 ± 2 °C.
(In agar dilution the substance is mixed into plates at graded concentrations.)

A short description of data set [2]: Distribution coefficient logD7.4. In kind it is physicochemical. Conditions: pH 7.4.

For the compound `CN1C(=O)[C@H](CCCCN)NC(=O)[C@H](CCCN)NCc2cccnc2Sc2cccc(-c3ccc(C(=O)O)cc3)c2CNC(=O)[C@@H]1Cc1c[nH]c2ccccc12` [zosurabalpin], the MIC in data set [1] (ACC00445) turned out to be 0.25 µg/mL (≈ 0.316 µM); in data set [1] (ACC00535), 0.12 µg/mL (≈ 0.152 µM); in data set [1] (ACC01073) it was 1 µg/mL (≈ 1.26 µM); in data set [1] (ACC01077), 0.25 µg/mL (≈ 0.316 µM); in data set [1] (ACC01085/AR0307), 0.25 µg/mL (≈ 0.316 µM); in data set [1] (ATCCBAA747, ATCC BAA-747), 0.12 µg/mL (≈ 0.152 µM). Further, the MIC in data set [1] (ROB08706) was 1 µg/mL (≈ 1.26 µM); in data set [1] (ROB08708) it was 0.12 µg/mL (≈ 0.152 µM). The logD7.4 result in data set [2] is given as “–2.46”.
